Assay results from US10258606B2, “Endothelin single nucleotide polymorphisms and methods of predicting β-adrenergic receptor targeting agent efficacy” (The Regents of the University of Colorado, A Body Corporate, priority 2007, dated 2019).

Experiments:
[1] = tested on: subjects with idiopathic dilated cardiomyopathy; test: BEST (Beta-Blocker Evaluation of Survival Trial) DNA substudy: time to event by endothelin gene system genotype, Cox proportional hazards model; format: in vivo, human; conditions: for Event/number, first heart failure hospitalization or death: FIG. 1; for E, number of events / HR associated with each copy of allele A, allele dosage Cox model / HR associated with each copy of allele Asn, allele dosage Cox model: bucindolol arm; for HR associated with each copy of allele A, allele dosage Cox model: G/A (IVS-4); for HR associated with each copy of allele Asn, allele dosage Cox model: Lys198Asn
Excerpt: 309 subjects with idiopathic dilated cardiomyopathy were studied from the Beta-Blocker Evaluation of Survival Trial (BEST) (2001). BEST was a multicenter, randomized, prospective trial of patients with NYHA class III or IV heart failure and an ejection fraction <35% comparing mortality in adults treated with placebo or the non-selective β-blocker bucindolol. The BEST DNA bank, initiated in the study's second year, collected samples from 38% of the original participants. The inventors requested samples from idiopathic dilated cases, rather than the entire cohort, to ensure a more homogenous heart failure population. In particular, the inventors sought to avoid studying […] ischemic forms of heart failure where acquired macrovascular changes in arterial stiffness or tone could potentially mask or override inherent microvascular phenotypes mediated by variation in endothelin genes. Written informed consent was obtained from each participant and all DNA was coded to maintain confidentiality. The genotyping project was approved by the BEST DNA Bank Oversight Committee and by the Colorado Multiple Institutional Review Board
Time to each of two endpoints was examined: all cause death and a combined endpoint comprised of first heart failure hospitalization or all cause death, using the Cox proportional hazards model. Genotype was treated a priori as a continuous variable, consistent with an allele dosage effect. Analyses were conducted using R and SAS. Primary analyses consisted of separate tests of a main genotype effect on time to event for each SNP within each treatment arm: placebo (N=159) and bucindolol (N=150). Secondary analyses, in the combined sample (N=309), consisted of tests of a genotype-treatment pharmacogenetic interaction and of a main genotype effect independent of treatment arm. Secondary analyses, comprised of interaction tests and estimation of within-genotype bucindolol:placebo hazard ratios, were also performed. Ethnicity was not included as a factor in initial Cox models, because of the relatively small sample. However, post-hoc analyses (within ethnic group, and including ethnicity-genotype interactions) were used to explore whether initial results were due to unaccounted for ethnic stratification. Linkage disequilibrium was assessed by taking the R^2 value (squared correlation) of the genotypes (coded as 0, 1 or 2) between two SNPs.
To account for the large number of simultaneous tests, adjusted p-values obtained from a multiple-testing permutation procedure are reported (Westfall and Young, 1993). Based on the actual data set, 5000 random data sets were generated by randomly permuting the time to event data relative to the genotype data, separately for patients on placebo and for patients on bucindolol. […] Adjusted p-values for interaction tests are based on 18 tests (2 outcomes×9 SNPs).
Cox model analysis was also used to examine a variety of more complicated models, and to describe the quantify the effects of bucindolol in terms of bucindolol:placebo hazard ratios, within genotype. Kaplan-Meier plots and log-rank tests were also examined. All p-values were based on two-sided tests. The statistical analysis was performed at the Veterans Affairs Cooperative Studies Program DNA Bank Coordinating Center.

[2] = tested on: 1040 BEST DNA Bank subjects; conditions: bucindolol treated subjects carrying the Arg-389 allele of the beta-1-adrenergic receptor (ADRB); cited from earlier work
[3] = combined endpoint, Non-Hispanic Blacks
[4] = combined endpoint, Non-Hispanic Whites

## CC(C)(Cc1c[nH]c2ccccc12)NCC(O)COc1ccccc1C#N (centres unmarked) [Bucindolol, bucindolol]
[1]; IVS-4 G/A common homozygotes
  Event/number, first heart failure hospitalization or death: 21/84
[1]; IVS-4 G/A heterozygotes
  Event/number, first heart failure hospitalization or death: 21/58
[1]; IVS-4 G/A rare homozygotes
  Event/number, first heart failure hospitalization or death: 7/8
[1]; Lys198Asn common homozygotes
  Event/number, first heart failure hospitalization or death: 22/87
[1]; Lys198Asn heterozygotes
  Event/number, first heart failure hospitalization or death: 20/55
[1]; Lys198Asn rare homozygotes
  Event/number, first heart failure hospitalization or death: 7/8
[1]; combined endpoint, G/A (IVS-4) analysis, All (N 150)
  E, number of events: 49
[1]; combined endpoint, G/A (IVS-4) analysis, Non-Hispanic Blacks (N 38)
  E, number of events: 16
[1]; combined endpoint, G/A (IVS-4) analysis, Non-Hispanic Whites (N 100)
  E, number of events: 27
[1]; combined endpoint, All
  HR associated with each copy of allele A, allele dosage Cox model: 2.2
  HR associated with each copy of allele Asn, allele dosage Cox model: 2.0
[1]; [3]
  HR associated with each copy of allele A, allele dosage Cox model: 1.58
  HR associated with each copy of allele Asn, allele dosage Cox model: 1.5
[1]; [4]
  HR associated with each copy of allele A, allele dosage Cox model: 1.9
  HR associated with each copy of allele Asn, allele dosage Cox model: 1.9
[1]; combined endpoint, Lys198Asn analysis, All (N 150)
  E, number of events: 49
[1]; combined endpoint, Lys198Asn analysis, Non-Hispanic Blacks (N 38)
  E, number of events: 16
[1]; combined endpoint, Lys198Asn analysis, Non-Hispanic Whites (N 100)
  E, number of events: 27
[1]; combined endpoint (first heart failure hospitalization or all cause mortality), EDN1 G/A (IVS-4) genotype GG
  Hazard ratio for bucindolol versus placebo: 0.5
[1]; combined endpoint, EDN1 G/A (IVS-4) genotype AA
  Hazard ratio for bucindolol versus placebo: 3.2
[1]; combined endpoint, EDN1 G/A (IVS-4) genotype GA
  Hazard ratio for bucindolol versus placebo: 1.1
[1]; combined endpoint, EDN1 Lys198Asn genotype Asn/Asn
  Hazard ratio for bucindolol versus placebo: 2.5
[1]; combined endpoint, EDN1 Lys198Asn genotype Lys/Asn
  Hazard ratio for bucindolol versus placebo: 1.1
[1]; combined endpoint, EDN1 Lys198Asn genotype Lys/Lys
  Hazard ratio for bucindolol versus placebo: 0.5
[1]; common homozygotes (statistically significant)
  apparent effect of bucindolol on combined endpoint: beneficial effect
[1]; heterozygotes
  apparent effect of bucindolol on combined endpoint: neutral effect
[1]; rare homozygotes
  apparent effect of bucindolol on combined endpoint: harmful effect
[1]; the 5.5% of subjects homozygous for the rare complementary haplotype
  combined endpoint hazard rate on bucindolol relative to placebo: almost three times greater
[2]
  all-cause mortality: reduced all-cause mortality
